± gives the expanded uncertainty stated by the source.
Settings: Brillouin light scattering

CCOC(C)(C)C [2-ethoxy-2-methylpropane]
Settings	speed of sound [m/s]
433.15 K, 920 kPa, Liquid	454.82 ± 2.7
433.15 K, 2500 kPa, Liquid	483.99 ± 2.7
433.15 K, 4000 kPa, Liquid	513.28 ± 2.8
433.15 K, 5500 kPa, Liquid	541.29 ± 2.9
433.15 K, 7000 kPa, Liquid	568 ± 3.2
433.15 K, 8500 kPa, Liquid	593.43 ± 3.3
433.15 K, 10000 kPa, Liquid	617.57 ± 3.4
443.15 K, 1150 kPa, Liquid	409.25 ± 2.4
443.15 K, 2500 kPa, Liquid	440.1 ± 2.5
443.15 K, 4000 kPa, Liquid	471.64 ± 2.6
443.15 K, 5500 kPa, Liquid	501.8 ± 2.8
443.15 K, 7000 kPa, Liquid	530.58 ± 3
443.15 K, 8500 kPa, Liquid	557.97 ± 3.1
443.15 K, 10000 kPa, Liquid	583.97 ± 3.3
453.15 K, 1420 kPa, Gas	157.35 ± 1.4
453.15 K, 1420 kPa, Liquid	361.97 ± 2.2
453.15 K, 2500 kPa, Liquid	395.94 ± 2.3
453.15 K, 4000 kPa, Liquid	429.85 ± 2.5
453.15 K, 5500 kPa, Liquid	462.29 ± 2.6
453.15 K, 7000 kPa, Liquid	493.25 ± 2.9
453.15 K, 8500 kPa, Liquid	522.72 ± 3
453.15 K, 10000 kPa, Liquid	550.71 ± 3.1
463.15 K, 1750 kPa, Gas	149.62 ± 1.5
463.15 K, 1750 kPa, Liquid	312.51 ± 2.2
463.15 K, 2500 kPa, Liquid	351.51 ± 2.2
463.15 K, 4000 kPa, Liquid	387.92 ± 2.3
463.15 K, 5500 kPa, Liquid	422.75 ± 2.4
463.15 K, 7000 kPa, Liquid	456 ± 2.8
463.15 K, 10000 kPa, Liquid	517.77 ± 3
473.15 K, 2130 kPa, Gas	140.63 ± 1.4
473.15 K, 2130 kPa, Liquid	260.24 ± 2
473.15 K, 4000 kPa, Liquid	345.84 ± 2.1
473.15 K, 5500 kPa, Liquid	383.18 ± 2.3
473.15 K, 7000 kPa, Liquid	418.85 ± 2.7
473.15 K, 8500 kPa, Liquid	452.84 ± 2.8
473.15 K, 10000 kPa, Liquid	485.16 ± 2.9
478.15 K, 2340 kPa, Gas	135.58 ± 1.4
483.15 K, 2570 kPa, Gas	130.09 ± 1.5
483.15 K, 2570 kPa, Liquid	204.36 ± 1.9
483.15 K, 4000 kPa, Liquid	303.61 ± 2
483.15 K, 5500 kPa, Liquid	343.59 ± 2.1
488.15 K, 2820 kPa, Gas	123.95 ± 2.1
488.15 K, 2820 kPa, Liquid	174.7 ± 1.8
493.15 K, 3090 kPa, Gas	116.68 ± 1.4
493.15 K, 3090 kPa, Liquid	143.64 ± 1.8
493.15 K, 4000 kPa, Liquid	261.23 ± 1.9
493.15 K, 5500 kPa, Liquid	303.97 ± 2
511.02 K, 5000 kPa, Fluid (supercritical or subcritical phases)	203.94 ± 2.6
511.07 K, 6000 kPa, Fluid (supercritical or subcritical phases)	251.63 ± 3.1
511.12 K, 7000 kPa, Fluid (supercritical or subcritical phases)	292.44 ± 3
511.26 K, 4000 kPa, Fluid (supercritical or subcritical phases)	109.41 ± 3
520.05 K, 4000 kPa, Fluid (supercritical or subcritical phases)	104.01 ± 1.7
521 K, 5000 kPa, Fluid (supercritical or subcritical phases)	155.15 ± 2.2
521.16 K, 6000 kPa, Fluid (supercritical or subcritical phases)	217.02 ± 3.6
521.29 K, 7000 kPa, Fluid (supercritical or subcritical phases)	264.62 ± 3.3
529.5 K, 4000 kPa, Fluid (supercritical or subcritical phases)	118.19 ± 1.2
530.2 K, 5000 kPa, Fluid (supercritical or subcritical phases)	132.08 ± 1.6
530.73 K, 6000 kPa, Fluid (supercritical or subcritical phases)	183.76 ± 3.4
530.99 K, 7000 kPa, Fluid (supercritical or subcritical phases)	234.87 ± 3.6
540.45 K, 4000 kPa, Fluid (supercritical or subcritical phases)	134.27 ± 1.2
541.14 K, 5000 kPa, Fluid (supercritical or subcritical phases)	128.78 ± 1.2
541.48 K, 6000 kPa, Fluid (supercritical or subcritical phases)	158.8 ± 2.7
541.85 K, 7000 kPa, Fluid (supercritical or subcritical phases)	208.25 ± 3.4
550 K, 5000 kPa, Fluid (supercritical or subcritical phases)	134.46 ± 1.2
550.06 K, 4000 kPa, Fluid (supercritical or subcritical phases)	147.6 ± 1.3
550.44 K, 6000 kPa, Fluid (supercritical or subcritical phases)	144.68 ± 2
550.58 K, 7000 kPa, Fluid (supercritical or subcritical phases)	188.75 ± 3.2
561.04 K, 4000 kPa, Fluid (supercritical or subcritical phases)	161.59 ± 1.4
561.29 K, 5000 kPa, Fluid (supercritical or subcritical phases)	145.73 ± 1.3
561.65 K, 6000 kPa, Fluid (supercritical or subcritical phases)	145.52 ± 1.5
561.96 K, 7000 kPa, Fluid (supercritical or subcritical phases)	176.1 ± 2.4
571.2 K, 6000 kPa, Fluid (supercritical or subcritical phases)	152.92 ± 1.3
571.28 K, 7000 kPa, Fluid (supercritical or subcritical phases)	169.79 ± 1.7
571.33 K, 5000 kPa, Fluid (supercritical or subcritical phases)	158.34 ± 1.3
571.72 K, 4000 kPa, Fluid (supercritical or subcritical phases)	172.96 ± 1.4
579.57 K, 7000 kPa, Fluid (supercritical or subcritical phases)	169.78 ± 1.4
579.66 K, 6000 kPa, Fluid (supercritical or subcritical phases)	163.68 ± 1.3
579.91 K, 5000 kPa, Fluid (supercritical or subcritical phases)	170.18 ± 1.3
580.22 K, 4000 kPa, Fluid (supercritical or subcritical phases)	182.55 ± 1.4
590.12 K, 4000 kPa, Fluid (supercritical or subcritical phases)	194.12 ± 1.4
590.27 K, 7000 kPa, Fluid (supercritical or subcritical phases)	175.32 ± 1.3
590.38 K, 5000 kPa, Fluid (supercritical or subcritical phases)	185.11 ± 1.4
590.39 K, 6000 kPa, Fluid (supercritical or subcritical phases)	178.89 ± 1.4
601.53 K, 7000 kPa, Fluid (supercritical or subcritical phases)	188.12 ± 1.4
601.7 K, 6000 kPa, Fluid (supercritical or subcritical phases)	193.21 ± 1.4
602.16 K, 5000 kPa, Fluid (supercritical or subcritical phases)	199.29 ± 1.4
602.86 K, 4000 kPa, Fluid (supercritical or subcritical phases)	207.43 ± 1.5
611.06 K, 7000 kPa, Fluid (supercritical or subcritical phases)	202.27 ± 1.5
611.36 K, 6000 kPa, Fluid (supercritical or subcritical phases)	206.2 ± 1.5
611.87 K, 5000 kPa, Fluid (supercritical or subcritical phases)	211.58 ± 1.5
612.81 K, 4000 kPa, Fluid (supercritical or subcritical phases)	217.85 ± 1.5
622.53 K, 7000 kPa, Fluid (supercritical or subcritical phases)	213.01 ± 1.5
622.84 K, 6000 kPa, Fluid (supercritical or subcritical phases)	217.4 ± 1.5
623.38 K, 5000 kPa, Fluid (supercritical or subcritical phases)	222.38 ± 1.5
623.94 K, 4000 kPa, Fluid (supercritical or subcritical phases)	226.9 ± 1.5
631.83 K, 7000 kPa, Fluid (supercritical or subcritical phases)	218.09 ± 1.5
632.32 K, 6000 kPa, Fluid (supercritical or subcritical phases)	223.19 ± 1.5
633.27 K, 5000 kPa, Fluid (supercritical or subcritical phases)	228.01 ± 1.5
634.19 K, 4000 kPa, Fluid (supercritical or subcritical phases)	232.56 ± 1.5
643.79 K, 7000 kPa, Fluid (supercritical or subcritical phases)	224.46 ± 1.5
643.86 K, 6000 kPa, Fluid (supercritical or subcritical phases)	228.16 ± 1.5
644.48 K, 5000 kPa, Fluid (supercritical or subcritical phases)	232.66 ± 1.5
645.27 K, 4000 kPa, Fluid (supercritical or subcritical phases)	236.85 ± 1.6
653.83 K, 6000 kPa, Fluid (supercritical or subcritical phases)	231.78 ± 1.6
653.89 K, 7000 kPa, Fluid (supercritical or subcritical phases)	228.08 ± 1.5
654.31 K, 5000 kPa, Fluid (supercritical or subcritical phases)	235.93 ± 1.6
654.75 K, 4000 kPa, Fluid (supercritical or subcritical phases)	239.86 ± 1.6
665 K, 6000 kPa, Fluid (supercritical or subcritical phases)	234.24 ± 1.6
665.08 K, 4000 kPa, Fluid (supercritical or subcritical phases)	242.03 ± 1.6
665.1 K, 5000 kPa, Fluid (supercritical or subcritical phases)	237.76 ± 1.6
665.1 K, 7000 kPa, Fluid (supercritical or subcritical phases)	230.39 ± 1.5

Source: the NIST ThermoML archive (doi:10.1016/j.fluid.2015.10.026)
